Experimental data: patent US8017584B2, “GD3-mimetic peptides” (Otsuka Pharmaceutical Co., Ltd., priority 2000, dated 2011)
Where “and” joins values, the source holds several entries; their conditions need not be identical. Equal values may be shown once.

Key:
[1] = test system: T-cell-rich lymphocytes / IL-2-dependent CTLL2 cells; assay: Cell response test: IL-2 activity (3H thymidine up-take of CTLL2 cells) in supernatant of spleen cells of mice immunized with R4 peptide (R4-KLH); type: cell-based, mouse; settings: for 3H Thymidine up-take into CTLL2 cells, mean ± SE (4 wells): mice immunized with R4 peptide
Description: Using a fusion peptide R4-KLH obtained in Example 3 (4) between GD3R4 and KLH or a MAP form fusion peptide R4MAP-KLH created between GD3R4 and KLH, immunization was performed as described in (1) above.
Briefly, an emulsion mixed with an adjuvant (1:1, by volume) was administered to each member of groups of mice, each group consisting of 3 mice (CD-1), in an amount of 100 μL/mouse (for one administration (ip), peptide 30 μg/mouse) for immunization. In the case of R4-KLH, administration was performed every one week for one month, and subsequently every two weeks for one month; and in the case of R4MAP-KLH, every one week for 2 months. In any case, 4 days after the final immunization, blood was collected to thereby prepare antiserum samples.
(§1) The spleen aseptically removed from each of the above-immunized mice was minced in a 10% FCS-supplemented RPMI 1640 medium. By use of a nylon wool column, T-cell-rich lymphocytes were prepared and the cells were counted. The above medium containing the cells in an amount of 10^5 cells per 150 μL was added to each of the wells of a culture plate. PHA was added so as to attain a final concentration of 1 μg/mL. A peptide of the present invention or any of different gangliosides in PBS was added, and the mixture was incubated for 96 hours. A supernatant (100 μL) was obtained from each well. The IL-2 activity of the supernatant was determined through use of IL-2-dependent mouse cells, CTLL2. Briefly, the supernatant (100 μL) diluted 2 to 50-fold with a medium was added to the wells in an amount of 10^4 CTLL2 cells/well, followed by incubation at 37° C. for 48 hours. Subsequently, 3H-thymidine (0.5 μCi) was added to each well, followed by incubation for 6 hours. CTLL2 cells were recovered on a paper filter and counted for 3H.

[2] = Titer against GD3 (ELISA) of antiserum from mice immunized with MAP peptides (Example 4); type: in vivo, mice (C57BL/6); settings: individual mice
Description: Four species of GD3-mimetic peptide (MAP) obtained in Example 3 (2) was dissolved in PBS so as to attain a concentration of 200 μg/mL. The solution was added to Freund's complete (or incomplete) adjuvant (1:1, by volume), to thereby prepare an emulsion.
Eight mice (C57BL/6) were immunized by subcutaneous administration of the above emulsion (0.2 mL/mouse, in one administration, […]). Administration was performed every two weeks (for the second and subsequent administrations, Freund's incomplete adjuvant was used). After one week following respective administrations, blood was collected from the tail of each mouse, to thereby yield antiserum.
The antiserum obtained directly after the first administration will be referred to “1-st,” that obtained after the second administration will be referred to “2-nd,” and that obtained after the third administration will be referred to “3-rd.”
The titer, against GD3, of each of the antiserum samples (3×8 mice=24 samples) obtained in the (1) above was measured through ELISA as described below.
The thus-obtained purified GD3 was dissolved in methanol, whereby a GD3 solution having a concentration of 10 μg/mL was prepared. The GD3 solution was added to the wells of a 96-well micro-titer plate in amounts of 10 μL per well (which corresponds to 100 ng GD3 per well), and methanol was evaporated. Subsequently, a blocking solution (TBS supplemented with 1% BSA) was added to the wells in amounts of 50 μL per well, for blocking at 37° C. for 4 hours.
The supernatant was discarded. Each of the antiserum samples obtained in (1) above was diluted 100-fold, 400-fold, or 1,600 fold with the above-mentioned blocking solution. The diluted antiserum (50 μL) was added to each well for reaction at 4° C. overnight. The well was washed six times with TBS, and thereafter, HRP-labeled […] diluted 5,000-fold with the blocking solution was added (50 μL per well) for reaction for 2 hours at room temperature. The well was washed four times with TBS, and thereafter, enzymatic activity (peroxidase) of the well was detected with TMB solution (50 μL). The reaction was stopped with 1N HCl (50 μL), and the value corresponding to “420 nm-620 nm” was calculated.
A control sample was prepared as follows. […] The synthesized peptide was administered to a mouse for immunization, and the obtained antiserum served as a control sample. The titer of the control sample was obtained in a manner similar to that described above. (However, the number of provided mice was five, and only a 100-fold diluted solution was used.) This control peptide sample was also used in the form of MAP as described above.

Anti-OAcGD3 antibody = assay: ELISA of immobilized MAP-form peptides with control anti-OAcGD3 antibody; type: binding; settings: MAP form 100 ng/well
Description: (§2) A 0.1M NaHCO3 solution containing a GD3-mimetic peptide of the invention in the above MAP form (100 ng/100 μL) was added to the wells of a 96-well micro-titer plate, for immobilization at room temperature for one hour. Subsequently, in a manner similar to the ELISA method employed in Example 2, binding affinity of the GD3-mimetic peptide to GD3 antibody 4F6 was investigated.
(§3) Anti-GD2 antibody and anti-OAcGD3 antibody (Cerato, E., et al., Hybridoma, 16(4), 307-316 (1997)) were used as controls (these antibodies were kindly provided by from Dr. Portoukalian).

Anti-GD2 antibody = assay: ELISA of immobilized MAP-form peptides with control anti-GD2 antibody; type: binding; settings: MAP form 100 ng/well
Description: as §2, §3

[3] = test system: T-cell-rich lymphocytes / IL-2-dependent CTLL2 cells; assay: Cell response test: IL-2 activity (3H thymidine up-take of CTLL2 cells) in supernatant of spleen cells of mice immunized with GD3; type: cell-based, mouse; settings: for 3H Thymidine up-take into CTLL2 cells, mean ± SE (4 wells): mice immunized with GD3
Description: Similar to the case of immunization with R4-KLH, antiserum samples were also prepared through immunization with GD3 (30 μg).
as §1

[4] = stimulant 1 μg/ml, supernatant dilution 1/20
[5] = stimulant 1 μg/ml, supernatant dilution 1/50
[6] = stimulant 1 μg/ml, supernatant dilution ½
[7] = stimulant 1 μg/ml, supernatant dilution ⅕
[8] = stimulant 2 μg/ml, supernatant dilution 1/20
[9] = stimulant 2 μg/ml, supernatant dilution 1/50
[10] = stimulant 2 μg/ml, supernatant dilution ½
[11] = stimulant 2 μg/ml, supernatant dilution ⅕
[12] = stimulant 5 μg/ml, supernatant dilution 1/20
[13] = stimulant 5 μg/ml, supernatant dilution 1/50
[14] = stimulant 5 μg/ml, supernatant dilution ½
[15] = stimulant 5 μg/ml, supernatant dilution ⅕

GLAPPDYAERFELLS [GD3R3, tested as phage clone, MAP form or peptide]
activation of T cells ([1]; R4-KLH-immunized mice): T cells have been confirmed to have activated
3H Thymidine up-take into CTLL2 cells, mean ± SE (4 wells) [1, 4]: 1491 ± 364
3H Thymidine up-take into CTLL2 cells, mean ± SE (4 wells) [1, 5]: 682 ± 120
3H Thymidine up-take into CTLL2 cells, mean ± SE (4 wells) [1, 6]: 5577 ± 1063
3H Thymidine up-take into CTLL2 cells, mean ± SE (4 wells) [1, 7]: 2986 ± 327
3H Thymidine up-take into CTLL2 cells, mean ± SE (4 wells) [1, 8]: 1527 ± 337
3H Thymidine up-take into CTLL2 cells, mean ± SE (4 wells) [1, 9]: 736 ± 137
3H Thymidine up-take into CTLL2 cells, mean ± SE (4 wells) [1, 10]: 6351 ± 1314
3H Thymidine up-take into CTLL2 cells, mean ± SE (4 wells) [1, 11]: 3184 ± 439
3H Thymidine up-take into CTLL2 cells, mean ± SE (4 wells) [1, 12]: 1684 ± 375
3H Thymidine up-take into CTLL2 cells, mean ± SE (4 wells) [1, 13]: 812 ± 151
3H Thymidine up-take into CTLL2 cells, mean ± SE (4 wells) [1, 14]: 7898 ± 1496
3H Thymidine up-take into CTLL2 cells, mean ± SE (4 wells) [1, 15]: 3652 ± 681
reactivity of antiserum with GD3 (ELISA absorbance) ([2]; antiserum 1st (after first administration), dilution factor 1/100, MAP 5 μg/mouse s.c.): 0.105 and 0.062 (2×) and 0.098 and 0.051 and 0.04 and 0.165 and 0.169
reactivity of antiserum with GD3 (ELISA absorbance) ([2]; antiserum 1st, dilution factor 1/400): 0.077 and 0.004 and 0.048 and 0.016 and 0.026 and 0.067 and 0.071 and 0.083
reactivity of antiserum with GD3 (ELISA absorbance) ([2]; antiserum 1st, dilution factor 1/1600): 0.009 and 0.016 and 0.006 and 0.023 and 0.003 and 0.031 and 0.015 and 0.017
reactivity of antiserum with GD3 (ELISA absorbance) ([2]; antiserum 2nd (after second administration), dilution factor 1/100): 0.116 and 0.098 and 0.08 (2×) and 0.165 and 0.132 and 0.135 and 0.179
reactivity of antiserum with GD3 (ELISA absorbance) ([2]; antiserum 2nd, dilution factor 1/400): 0.078 and 0.079 and 0.112 and 0.118 and 0.088 (2×) and 0.076 and 0.054
reactivity of antiserum with GD3 (ELISA absorbance) ([2]; antiserum 2nd, dilution factor 1/1600): 0.025 (2×) and 0.034 and 0.022 and 0.027 and 0.018 and 0.07 and 0.024
reactivity of antiserum with GD3 (ELISA absorbance) ([2]; antiserum 3rd (after third administration), dilution factor 1/100): 0.126 and 0.143 and 0.069 and 0.189 (2×) and 0.073 and 0.098 and 0.047
reactivity of antiserum with GD3 (ELISA absorbance) ([2]; antiserum 3rd, dilution factor 1/400): 0.039 and 0.032 and 0.028 and 0.073 and 0.033 and 0.03 and 0.023 and 0.022
reactivity of antiserum with GD3 (ELISA absorbance) ([2]; antiserum 3rd, dilution factor 1/1600): 0.027 and 0.026 and 0.018 (3×) and 0.017 and 0.013 and 0.016
ELISA absorbance, Anti-OAcGD3 antibody (Anti-OAcGD3 antibody; Serum % 12.50%): 0.031
ELISA absorbance, Anti-OAcGD3 antibody (Anti-OAcGD3 antibody; Serum % 25%): 0.026
ELISA absorbance, Anti-OAcGD3 antibody (Anti-OAcGD3 antibody; Serum % 50%): 0.031
ELISA absorbance, Anti-OAcGD3 antibody (Anti-OAcGD3 antibody; Serum % 100%): 0.044
ELISA absorbance, Anti-GD2 antibody (Anti-GD2 antibody; Serum % 12.50%): 0.077
ELISA absorbance, Anti-GD2 antibody (Anti-GD2 antibody; Serum % 25%): 0.118
ELISA absorbance, Anti-GD2 antibody (Anti-GD2 antibody; Serum % 50%): 0.036
ELISA absorbance, Anti-GD2 antibody (Anti-GD2 antibody; Serum % 100%): 0.191
IL-2 production by T-cell-rich lymphocytes ([3]; lymphocytes from GD3-immunized mouse): production of IL-2 has been confirmed
3H Thymidine up-take into CTLL2 cells, mean ± SE (4 wells) [3, 4]: 1153 ± 246
3H Thymidine up-take into CTLL2 cells, mean ± SE (4 wells) [3, 5]: 571 ± 104
3H Thymidine up-take into CTLL2 cells, mean ± SE (4 wells) [3, 6]: 4066 ± 853
3H Thymidine up-take into CTLL2 cells, mean ± SE (4 wells) [3, 7]: 2654 ± 486
3H Thymidine up-take into CTLL2 cells, mean ± SE (4 wells) [3, 8]: 1540 ± 467
3H Thymidine up-take into CTLL2 cells, mean ± SE (4 wells) [3, 9]: 749 ± 118
3H Thymidine up-take into CTLL2 cells, mean ± SE (4 wells) [3, 10]: 5791 ± 1154
3H Thymidine up-take into CTLL2 cells, mean ± SE (4 wells) [3, 11]: 3243 ± 634
3H Thymidine up-take into CTLL2 cells, mean ± SE (4 wells) [3, 12]: 1566 ± 328
3H Thymidine up-take into CTLL2 cells, mean ± SE (4 wells) [3, 13]: 761 ± 102
3H Thymidine up-take into CTLL2 cells, mean ± SE (4 wells) [3, 14]: 7536 ± 1247
3H Thymidine up-take into CTLL2 cells, mean ± SE (4 wells) [3, 15]: 3528 ± 543
